For test [1], the target named is T1, Palmitoleoyl-protein carboxylesterase NOTUM (Homo sapiens, UniProt Q6P988).
T1 sequence (Q6P988 whole entry): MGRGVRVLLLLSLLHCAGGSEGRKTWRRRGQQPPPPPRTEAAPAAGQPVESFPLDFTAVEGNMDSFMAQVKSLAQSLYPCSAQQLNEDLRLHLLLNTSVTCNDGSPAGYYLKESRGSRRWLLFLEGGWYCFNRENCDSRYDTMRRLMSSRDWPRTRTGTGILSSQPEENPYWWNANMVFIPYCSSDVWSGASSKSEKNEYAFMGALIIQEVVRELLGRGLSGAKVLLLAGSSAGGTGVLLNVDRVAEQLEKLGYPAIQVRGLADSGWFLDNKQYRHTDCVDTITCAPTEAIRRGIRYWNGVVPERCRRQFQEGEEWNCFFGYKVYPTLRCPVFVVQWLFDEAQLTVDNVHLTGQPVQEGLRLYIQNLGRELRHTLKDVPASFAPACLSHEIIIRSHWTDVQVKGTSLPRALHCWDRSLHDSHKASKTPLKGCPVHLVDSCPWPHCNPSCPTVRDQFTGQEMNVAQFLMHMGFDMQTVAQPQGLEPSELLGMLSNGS
Description: Inhibition of C-terminal His-V5 tagged human Notum expressed in human HEK293F cells harbouring TCF/LEF luciferase reporter gene assessed as activation of Wnt signaling using WNT3A as substrate by Steady-Glo luciferase assay

In test [2] the target is T1, Palmitoleoyl-protein carboxylesterase NOTUM. This is another data set of the same source.
Description: Inhibition of human Notum using OPTS substrate by fluorescence based assay
Test [3] shares this target. This is another data set of the same source.
Description: Inhibition of human Notum using OPTS substrate incubated for 1 hr by fluorescence based assay

In test [1], `Cc1sc2ncnc(SCC(=O)O)c2c1Cl` displayed a 50% effective concentration (EC50) of 0.157 µM. It took 0.002 µM to reach half-maximal inhibition in test [2] (IC50). As to `Cc1ccccc1OCC(=O)Nc1cccnc1`, the IC50 in test [3] amounted to 33 µM. In test [2], `CC(=O)NCCc1c[nH]c2ccc(O)cc12` [ACETYLSEROTONIN] came in with an IC50 of 93.6 µM. This counts as double-digit micromolar.

The EC50 is the concentration at which the effect is half-maximal. For orientation: IC50 means the concentration at which inhibition is half-maximal. Low values mean inhibition by little substance, high ones a need for much substance.
